In patent publication US20240417404A1, “CRYSTALLINE FORMS OF N-[4-[4-(4-MORPHOLINYL)-7H-PYRROLO[2,3-d]PYRIMIDIN-6-YL]PHENYL]-4-[[3(R)-[(1-OXO-2-PROPEN-1-YL)AMINO]-1-[sequence]]METHYL]-2-PYRIDINECARBOXAMIDE AS IRREVERSIBLE INHIBITORS OF MENIN-MLL INTERACTION” (BIOMEA FUSION, INC., priority 2023, published 2024):
Values after ≈ are worked out from the molar mass of the structure shown.

What was measured:
[1] = Solid form stability (XRPD after storage, conversion in MeOH/water, thermal); type: physicochemical
Description: X-ray powder diffraction patterns were collected on a Bruker AXS C2 GADDS or Bruker AXS D8 diffractometer.
X-ray Powder Diffraction patterns were collected on a Bruker AXS C2 GADDS diffractometer using Cu Kα radiation (40 kV, 40 mA), automated XYZ stage, laser video microscope for auto-sample positioning, and a HiStar 2-dimensional area detector. X-ray optics consists of a single Göbel multilayer mirror coupled with a pinhole collimator of 0.3 mm. A weekly performance check is carried out using a certified standard NIST 1976 Corundum (flat plate). The beam divergence (i.e., the effective size of the X-ray beam on the sample) was approximately 4 mm. A θ-θ continuous scan mode was employed with a sample—detector distance of 20 cm which gives an effective 2θ range of 3.2°-29.7°. Typically the sample would be exposed to the X-ray beam for 120 seconds. The software used for data collection was GADDS for WNT 4.1.16 and the data were analyzed and presented using Diffrac Plus EVA v11.0.0.2 or v13.0.0.2.
X-ray Powder Diffraction patterns were collected on a Bruker D8 diffractometer using Cu Kα radiation (40 kV, 40 mA), θ-2θ goniometer, and divergence of V4 and receiving slits, a Ge monochromator and a Lynxeye detector. The instrument is performance checked using a certified Corundum standard (NIST 1976). The software used for data collection was Diffrac Plus XRD Commander v2.5.0 and the data were analysed and presented using Diffrac Plus EVA v11.0.0.2 or v13.0.0.2. Samples were run under ambient conditions as flat plate specimens using powder as received. The sample was gently packed into a cavity cut into a polished, zero-background (510) silicon wafer. The sample was rotated via its own plane during analysis. The details of the data collection are: • Angular range: 2 to 42 02θ • Step size: 0.05 02θ • Collection time: 0.5 s/step

[2] = Hygroscopicity (water absorption versus relative humidity); type: physicochemical; settings: from 40% RH to 70% RH at 25° C.
physchem = settings: pH 4.5, aqueous buffer, observed aqueous solubility
[3] = Solubility of Compound A crystalline forms in aqueous buffers and biorelevant media; settings: aqueous buffer, solubility, water, pH 4.5 acetate buffer, pH 6.8 phosphate buffer, pH 5.0 FeSSIF-v1 and pH 6.5 FaSSIF-v1

Which “XRPD pattern post storage” value ([1]; closed container at 60° C. and 75% RH for at least a week) does the source give for `C=CC(=O)N[C@@H]1CCCN(Cc2ccnc(C(=O)Nc3ccc(-c4cc5c(N6CCOCC6)ncnc5[nH]4)cc3)c2)C1` [Form K, N-[4-[4-(4-morpholinyl)-7H-pyrrolo[2,3-d]pyrimidin-6-yl]phenyl]-4-[[3(R)-[(1-oxo-2-propen-1-yl)amino]-1-piperidinyl]methyl]-2-pyridinecarboxamide] here?
The value was “substantially the same X-ray powder diffraction (XRPD) pattern”.

What about the “XRPD pattern post storage” value ([1]; open container at 25° C. and 92% RH for at least a week) of the same compound?
The value was “substantially the same X-ray powder diffraction (XRPD) pattern”.

What about the “XRPD pattern post storage” value ([1]; open container at 40° C. and 75% RH for at least a week) of the same compound?
Its value is “substantially the same X-ray powder diffraction (XRPD) pattern”.

What about the Stability ([1]; polymorph stability, K converted into Pattern D in MeOH/water mixture (water activity from 0 to 1), listed as K) of the same compound?
Its Stability is “Low-Converted into”.

What about the “Stability (thermal)” value ([1]; thermal) of the same compound?
Its value is “But thermally very stable”.

What about the “observed hygroscopicity and absorption of water” value [2] of the same compound?
The value was “about 2.1%”.

And the solubility (physchem)?
Its solubility is roughly 4 µg/mL (≈ 7.06 µM).

And the solubility [3]?
The solubility was less than 35 µg/mL.
